# Entries after “also recorded” stand apart in the source; their conditions may differ.
# Experiments:
# Format in all cases: in vivo, mouse
# [1] = test system: C57BL/6J mice; experiment: Barnes maze test, young adult mice
# [2] = test system: C57BL/6J mice; experiment: Novel object recognition test, old mice; details: old mice with exercise and surgery; intraperitoneal valeric acid once a week vs normal saline
# [3] = test system: GDNF; experiment: GDNF in the hippocampus by ELISA; details: exercise mice with surgery; intraperitoneal valeric acid
# Method: IL-1β, IL-6, C3 and GDNF in the hippocampus were detected by using ELISA kits. For testing the IL-1β, IL-6 and GDNF, brain tissues were homogenized on ice in the RIPA buffer containing 25 mM Tris-HCl with pH 7.6, 150 mM NaCl, 1% sodium deoxycholate, 0.1% SDS and a protease inhibitor cocktail containing 10 mg/ml aproteinin, 5 mg/ml […], 5 mg/ml leupetin and 1 mM phenylmethane sulfonylfluoride. For C3 testing, brain tissues were homogenized on ice in the PTR buffer (supplied in the kit). The supernatant was collected for ELISA detection after the homogenate was centrifuged at 13,000 g for 20 min at 4° C. and the protein concentration was determined by the BCA protein assay (Bio-Rad, Hemel Hempstead, Herts, UK). IL-1β, IL-6, C3 and GDNF in supernatant of brain were detected according to the manufacturer's instruction for ELISA, and the amount of them in each sample in the brain was normalized by its total protein content and was expressed as pg/mg protein.
# [4] = test system: C3ar; experiment: C3ar immunofluorescent staining of hippocampus; details: young adult mice with exercise and surgery; intraperitoneal valeric acid
# Method: The immunofluorescent labeling and quantification of the staining were performed as described before. Briefly, brain was fixed in 4% paraformaldehyde at 4° C. for 24 h and then incubated in 30% sucrose over night at 4° C. before being frozen in optimal cutting temperature compound. Coronal 20-μm thick sections were cut sequentially from Bregma -3 to -6 mm by using a cryostat and mounted on microscope slides. After being washed in Tris-buffered saline (TBS), sections were blocked in 10% donkey serum plus 1% bovine serum albumin (BSA) in TBS containing 0. 3% triton-X 100 for 2 h at room temperature and then incubated at 4° C. overnight with the following primary antibodies: rabbit monoclonal anti-C3 antibody (1:50), goat monoclonal anti-GFAP antibody (1:200), rat monoclonal anti-[…] antibody (1:50) and rabbit monoclonal anti-Iba-1 antibody (1:200). Sections were rinsed in TBS with 0.1% Triton-x 100. […] The quantification was performed as described previously. […] The number of pixels per image with intensity above a predetermined threshold level was considered as a positively stained area for an interested marker and quantified using the Image-pro plus 6.0 (Media Cybernetics, Inc., Rockville, MD, USA) and presented as percentage of positive area in the total area. […] All quantitative analyses were performed in a blinded manner.
# [5] = Plasma SCFA profiling by GC-MS; details: mice with exercise and surgery, intraperitoneal valeric acid; blood 7 days after surgery
# [6] = test system: IL-17; experiment: ELISA of IL-17 in the serum
# Method: Mice were weighed and anesthetized with isoflurane at 24 h after MCAO. Blood samples were obtained from the right heart after thoracotomy. Blood was centrifuged (13,000 g, 4° C.) after it had been placed at 4° C. for 2 h for the collection of serum. After the collection of blood, mice were perfused with 4° C. saline for brain tissue harvesting. The cerebral cortex (anteroposterior: −1.5 to 2.5 mm, mediolateral: 1.0 to 3.0 mm) was dissected out. All dissection procedures were performed on ice.
# IL-10, IL-17, IL-1β and IL-6 in the serum and brain were detected by using ELISA kits (catalog number: M1000B, M1700, MLB00C and D6050, R&D SYSTEM, Inc., Minneapolis, MN, USA) as we described before. The brain tissues were homogenized on ice in the RIPA buffer containing 25 mM Tris-HCl with pH 7.6, 150 mM NaCl, 1% sodium deoxycholate and 0.1% SDS (catalog number: 89901, Thermo Scientific, Rockford, IL, USA) and a protease inhibitor cocktail containing 10 mg/ml aproteinin, 5 mg/ml peptastin, 5 mg/ml leupetin and 1 mM phenylmethane sulfonylfluoride (catalog number: SRE0055, Sigma-Aldrich, St. Louis, MO, USA). The supernatant was collected for ELISA detection after being centrifuged for 20 min (13,000 g, 4° C.) and the protein concentration was determined by the BCA method. Cytokines in the serum and supernatant of brain were detected according to the manufacturer's instruction. The amount of IL-10, IL-17, IL-1β and IL-6 in each sample in the brain was normalized by its protein content.
smiles,measurement,setting,value
CCCCC(=O)O [valeric acid],performance in the Barnes maze,"[1]; 13-week old mice without surgery, intracerebroventricular 4 mg/kg once daily for 4 days (1/50 dose of intraperitoneal injection)",did not affect the performance
same,time to identify target box in the Barnes maze test,"[1]; young adult mice with exercise and surgery, valeric acid 200 mg/kg intraperitoneal once a week vs normal saline",reversed the effects of exercise
same,performance in novel object recognition test,[2],impaired the performance
same,GDNF levels in the hippocampus,[3],decreased
same,exercise-induced reduction of C3ar in the hippocampus,[4],this reduction was blocked
same,butyric acid in the blood,[5],attenuated this reduction
same,hexanic acid in the blood,[5],attenuated this reduction
same,valeric acid in the blood,[5],attenuated this reduction; also recorded: did not increase
same,IL-17 in the blood,"[6]; mice without MCAO, valeric sodium 100 mg/kg intraperitoneal for 7 days",increase
same,IL-17 in the blood,"[6]; young mice, 100 mg/kg intraperitoneal 1 h before and 6 h after 120-min MCAO, 24 h after MCAO, vs saline",increased

# Reference: patent publication US20250319139A1, “METHODS FOR TREATING NEUROINFLAMMATION” (University of Virginia Patent Foundation, priority 2021, published 2025)
